{"source": "patent US20090012052A1", "about": "“METHOD FOR TREATING ER+ BREAST CANCER” (Ore Pharmaceuticals Inc., priority 2006, published 2009)", "key": {"[1]": {"tested_on": "PR", "details": "T47D (ER+, PR+) cells; cited from earlier work"}, "[2]": {"tested_on": "ER", "details": "T47D (ER+, PR+) cells; cited from earlier work"}, "[3]": {"tested_on": "T47D cells", "details": "cited from earlier work"}, "[4]": {"tested_on": "T47D (human ER+ breast cancer cell line) xenografts", "assay": "Growth of ER+ breast cancer cell line (T47D) xenografts in mice", "assay_type": "in vivo", "details": "NODscid mice with estrogen pellet; p.o. once daily 3-5 weeks; candesartan cilexetil 10/30/100, irbesartan 30/100/300, tamoxifen 0.1/0.3/1.0 mg/kg", "protocol": "Female NODscid mice of age 5-6 weeks received a subcutaneous estrogen pellet implant (1.7 mg). Twenty four hours after estrogen pellet implantation, the mice received tumor implantation by subcutaneous injection of T47D cells to the flank (approximately 2.5×10^6 cells/mouse). The mice were ear-notched for identification and housed 4 animals per cage. The tumor implantation site was palpated up to 3 times weekly to monitor tumor growth. One hundred animals in which tumor implantation was successful (7-12 days after injection) were randomized to ten treatment groups, 10 animals per group:\nTumors were measured 3 times weekly using digital calipers. Body weight was measured twice weekly. Clinical observations were conducted weekly. At the conclusion of the study or when mice attained a maximum tumor burden of about 3.0 cm^3 or about 10% of body weight, the mice were sacrificed, tumors were harvested and a terminal blood sample was collected."}, "[5]": {"tested_on": "HCC1143 cells", "assay": "Cell proliferation assay (RT-CES impedance), ER- cell line HCC1143", "assay_type": "cell-based, human", "details": "for Effect on cell proliferation: HCC1143", "protocol": "(§1) Unless otherwise indicated, cell proliferation assays described in Examples 2-5 were performed using a Real-Time Cell Electronic Sensing (RT-CES™ 96×) instrument from ACEA Bioscience (San Diego, Calif.). This instrument utilizes an electronic readout (impedance) to non-invasively quantify adherent cell proliferation and viability in real time.\n(§2) Cells were seeded in 96-well microtiter plates containing microelectronic sensor arrays (96E plates; ACEA). Cells were maintained in RPMI 1640 (Invitrogen, Carlsbad, Calif.) supplemented with 10% fetal bovine serum (FBS) (Hyclone, Logan, Utah) and were cultured at 37° C. in a humidified atmosphere containing 5% CO2. For proliferation assays, cells were seeded (20,000 cells/well), allowed to attach and grown overnight in standard growth medium. Cells were then serum-starved for 8 hours prior to the proliferation assay in presence or absence of test compound(s). The proliferation response was continuously monitored by measuring the impedance change in each well for the indicated number of hours. Data are expressed as cell index (CI) change relative to time in culture, reflecting measured changes in electrical impedance. Each value shown is an average of 6 wells. Where shown, statistical analysis was performed by calculation of standard deviation and P values were generated by a Student's two-tailed t-test.\n(§3) T47D (American Type Culture Collection, Manassas, Va. (ATCC) cat. HTB-133) is an ER+ cell line derived from human mammary gland ductal carcinoma. Other ER+ cell lines used in studies reported herein include ZR-75 and HCC70. HCC1143 (ATCC cat. CRL-2321) is an ER− cell line also derived from human mammary gland ductal carcinoma.\n(§4) Following the 8 hour starvation phase, either Ang II (Sigma-Aldrich), 500 nM, or vehicle control was added to the cell culture. […] Ang II also stimulated proliferation of ER+ cell lines HCC70, by approximately 30%, and ZR-75, by approximately 35%, relative to vehicle control (data not shown).\n(§5) A cell proliferation assay procedure was followed as described in Example 2. Following the 8 hour starvation phase, either Ang II (Sigma-Aldrich), 500 nM, with or without the AT1 receptor antagonist telmisartan, 1.25 μM or 5 μM, or vehicle control was added to the cell culture.\n(§6) A cell proliferation assay procedure was followed as described in Example 2. Following the 8 hour starvation phase, either Ang II (Sigma-Aldrich), 500 nM, with or without the AT1 receptor antagonist candesartan, 5 μM, or vehicle control was added to the cell culture.\n(§7) A cell proliferation assay procedure was followed as described in Example 2. Following the 8 hour starvation phase, either Ang II (Sigma-Aldrich), 500 nM, with or without the AT1 receptor antagonist irbesartan, 5 μM, or vehicle control was added to the cell culture."}, "[6]": {"tested_on": "T47D cells", "assay": "Cell proliferation assay (RT-CES impedance), ER+ cell line T47D", "assay_type": "cell-based, human", "details": "for Effect on Ang II-induced growth / Effect on Ang II-induced cell proliferation: T47D", "protocol": "as §1, §2, §3, §4, §5, §6, §7\nA cell proliferation assay was conducted by a procedure substantially as described in Example 2, using the ER+ human breast cancer cell line T47D. Following an eight-hour serum starvation phase, test substance was added to the cell culture to provide each of the following treatments: […]"}, "[7]": {"tested_on": "breast cancer epithelial cell line MCF-7", "details": "cited from earlier work"}, "[8]": {"tested_on": "cells cultured from invasive ductal carcinomas", "details": "cited from earlier work"}, "[9]": {"details": "administered for 5 years; women having risk factors; cited from earlier work"}, "[10]": {"tested_on": "HCC38 cells", "assay": "Cell proliferation assay (RT-CES impedance), cell line HCC38", "assay_type": "cell-based, human", "protocol": "as §1\nas §2, with “t-test. […]” for “t-test.”"}, "[11]": {"tested_on": "HCC1937 cells", "assay": "Cell proliferation assay (RT-CES impedance), cell line HCC1937", "assay_type": "cell-based, human", "protocol": "as §1\nas §2, with “t-test. […]” for “t-test.”"}, "[12]": {"tested_on": "T47D cell line", "details": "cited from earlier work"}, "[13]": {"tested_on": "HCC1395 cells", "assay": "Cell proliferation assay (RT-CES impedance), cell line HCC1395", "assay_type": "cell-based, human", "protocol": "as §1\nas §2, with “t-test. […]” for “t-test.”"}, "[14]": {"tested_on": "HCC1954 cells", "assay": "Cell proliferation assay (RT-CES impedance), cell line HCC1954", "assay_type": "cell-based, human", "protocol": "as §1\nas §2, with “t-test. […]” for “t-test.”"}, "[15]": {"tested_on": "ZR-75 cells", "assay": "Cell proliferation assay (RT-CES impedance), ER+ cell line ZR-75", "assay_type": "cell-based, human", "protocol": "as §1\nas §2, with “t-test. […]” for “t-test.”"}, "[16]": {"tested_on": "HCC70 cells", "assay": "Cell proliferation assay (RT-CES impedance), ER+ cell line HCC70", "assay_type": "cell-based, human", "protocol": "as §1\nas §2, with “t-test. […]” for “t-test.”"}, "[17]": {"details": "Ang II 500 nM with AT1 receptor antagonist 5 μM, data not shown"}, "[18]": {"details": "Ang II 500 nM with AT1 receptor antagonist 5 μM"}, "[19]": {"details": "Ang II 500 nM with telmisartan 1.25 μM or 5 μM"}}, "note": "Entries after “also recorded” stand apart in the source; their conditions may differ."}
{"compound": "C[C@H](CS)C(=O)N1CCC[C@H]1C(=O)O", "note": "[Captopril]", "values": [{"measurement": "PR protein concentration", "setting": "[1]", "result": "increased"}, {"measurement": "ER protein concentration", "setting": "[2]", "result": "reduced"}, {"measurement": "[3H]thymidine incorporation (an index of cell proliferation)", "setting": "[3]", "result": "inhibited"}]}
{"compound": "CCOc1nc2cccc(C(=O)OC(C)OC(=O)OC3CCCCC3)c2n1Cc1ccc(-c2ccccc2-c2nnn[nH]2)cc1", "note": "(centres unmarked) [candesartan cilexetil]", "values": [{"measurement": "Growth in tumor volume", "setting": "[4]", "result": "reduced in a dose-dependent fashion"}]}
{"compound": "CCOc1nc2cccc(C(=O)O)c2n1Cc1ccc(-c2ccccc2-c2nnn[nH]2)cc1", "note": "[candesartan, 2-ethoxy-1-[4-[2-(1H-tetrazol-5-yl)phenyl]benzyl]-7-benzimidazole-carboxylic acid]", "values": [{"measurement": "Effect on cell proliferation", "setting": "[5]; [17]", "result": "No effects"}, {"measurement": "Effect on Ang II-induced growth", "setting": "[6]; [18]", "result": "significantly inhibited"}]}
{"compound": "CCCCC1=NC2(CCCC2)C(=O)N1Cc1ccc(-c2ccccc2-c2nnn[nH]2)cc1", "note": "[irbesartan, 2-n-butyl-4-spirocyclopentane-1-[(2′-(tetrazol-5-yl)bipheny-4-yl)methyl]-2-imidazolin-5-one]", "values": [{"measurement": "Growth in tumor volume", "setting": "[4]", "result": "the lowest dose tested (30 mg/kg) appeared to give the greatest effect"}, {"measurement": "Effect on cell proliferation", "setting": "[5]; [17]", "result": "No effects"}, {"measurement": "Effect on Ang II-induced growth", "setting": "[6]; [18]", "result": "significantly inhibited"}, {"measurement": "Effect on Ang II-induced cell proliferation", "setting": "[6]; irbesartan 5 μM + Ang II 500 nM", "result": "reversed the Ang II effect"}]}
{"compound": "NCCCC[C@H](N[C@@H](CCc1ccccc1)C(=O)O)C(=O)N1CCC[C@H]1C(=O)O", "note": "[lisinopril]", "values": [{"measurement": "PR protein concentration", "setting": "[1]", "result": "No such effects"}, {"measurement": "ER protein concentration", "setting": "[2]", "result": "No such effects"}, {"measurement": "[3H]thymidine incorporation (an index of cell proliferation)", "setting": "[3]", "result": "No such effects"}]}
{"compound": "CCCCc1nc(Cl)c(CO)n1Cc1ccc(-c2ccccc2-c2nnn[nH]2)cc1", "note": "[losartan, 2-n-butyl-4-chloro-5-hydroxymethyl-1-[[2′-(1H-tetrazol-5-yl)biphenyl-4-yl]methyl]imidazole]", "values": [{"measurement": "Effect on Ang II proliferative effect", "setting": "[7]", "result": "blocked"}, {"measurement": "Effect on Ang II-stimulated proliferation", "setting": "[8]", "result": "blocked"}]}
{"compound": "CC/C(=C(\\c1ccccc1)c1ccc(OCCN(C)C)cc1)c1ccccc1", "note": "[tamoxifen]", "values": [{"measurement": "Growth in tumor volume", "setting": "[4]", "result": "reduced in a dose-dependent fashion"}, {"measurement": "Reduction of incidence of invasive breast cancer", "setting": "[9]", "result": "~50", "unit": "%"}, {"measurement": "Effect on Ang II-induced cell proliferation", "setting": "[6]; tamoxifen 7.5 μM + Ang II 500 nM", "result": "reduced cell proliferation to a level lower than that of vehicle control"}]}
{"compound": "CCCc1nc2c(C)cc(-c3nc4ccccc4n3C)cc2n1Cc1ccc(-c2ccccc2C(=O)O)cc1", "note": "[telmisartan, 4′-[[4-methyl-6-(1-methyl-2-benzimidazolyl)-2-propyl-1-benzimidazol-yl]methyl]-2-biphenylcarboxylic acid]", "values": [{"measurement": "Effect on cell proliferation", "setting": "[5]; [19]", "result": "No effects"}, {"measurement": "Effect on Ang II-induced growth", "setting": "[6]; [19]", "result": "significantly inhibited"}]}
{"compound": "Ang II: peptide angiotensin II, a major regulator of blood pressure and cardiovascular homeostasis (Sigma-Aldrich) (DRVYIHPF; Angiotensin-2; UniProt P01019 25-32, looked up)", "values": [{"measurement": "Ang II proliferation response", "setting": "[10]", "result": "negative"}, {"measurement": "Effect of Ang II on cell growth/proliferation", "setting": "[5]; HCC1143 (ER-), Ang II 500 nM vs vehicle control", "result": "No effects"}, {"measurement": "Ang II proliferation response", "setting": "[5]; cell line HCC1143", "result": "negative"}, {"measurement": "Ang II proliferation response", "setting": "[11]", "result": "negative"}, {"measurement": "Proliferative effect of Ang II", "setting": "[7]", "result": "dose-dependent proliferative effect"}, {"measurement": "Proliferation stimulated by Ang II", "setting": "[8]; ER and PR positive", "result": "stimulated in a dose-dependent manner"}, {"measurement": "Stimulation of cell growth by Ang II", "setting": "[12]", "result": "significant stimulation of cell growth"}, {"measurement": "Effect of Ang II on cell growth/proliferation", "setting": "[6]; T47D (ER+), Ang II 500 nM vs vehicle control, after 8 h serum starvation", "result": "significantly stimulated growth; also recorded: substantial increase in cell proliferation"}, {"measurement": "Ang II proliferation response", "setting": "[6]; cell line T47D", "result": "positive"}, {"measurement": "Ang II proliferation response", "setting": "[13]", "result": "negative"}, {"measurement": "Ang II proliferation response", "setting": "[14]", "result": "negative"}, {"measurement": "Stimulation of proliferation relative to vehicle control", "setting": "[15]; ZR-75 (ER+), Ang II 500 nM, data not shown", "result": "approximately 35%"}, {"measurement": "Ang II proliferation response", "setting": "[15]; cell line ZR-75", "result": "positive"}, {"measurement": "Stimulation of proliferation relative to vehicle control", "setting": "[16]; HCC70 (ER+), Ang II 500 nM, data not shown", "result": "approximately 30%"}, {"measurement": "Ang II proliferation response", "setting": "[16]; cell line HCC70", "result": "positive"}]}
